Patent publication EP0197829A1, “5H-pyrido[3',4':4,5]pyrrolo[3,2-c]pyridine derivatives, process for their preparation and their antitunour activity” (SANOFI, priority 1985, dated 1986)
Values joined by “and” are separate entries in the source; they are usually repeats but may differ in a detail not shown here. Equal entries are not always repeated.

How the values were obtained:
in vivo = experiment: in vivo; parameters: species or system souris; conditions: mouse, ip, 200 mg/kg
Protocol: Ainsi, l'administration à des souris hybrides CDF1 saines, en une injection unique par la voie intrapéritonéale, de doses croissantes des composés à tester (5 mg, 10 mg, 20 mg, 40 mg/kg) a permis de constater que, à ces doses, les produits étaient parfaitement tolérés puisque le taux de survivants était de 100 p. 100.
Dans les mêmes conditions, administrés à des souris BDF1 saines, les taux de survivants étaient de 100 p. 100 jusqu'à 100 mg/kg pour les dérivés 1, 3 et 9 et jusqu'à 200 mg/kg pour les dérivés 2 et 8.

mélanome B 16 = experiment: B 16 melanoma test in vivo; parameters: species or system souris hybrides BDF1; Jour médian de survie: unit not given here; conditions: 0,5 mg/kg i.p. J1-J9
Excerpt: L'activité antitumorale a été testée in vivo sur différentes tumeurs selon le protocole général suivant : Toutes les souris mâles ou femelles sont inoculées par voie intrapéritonéale au jour Jo avec une quantité déterminée de cellules tumorales viables, variable selon la tumeur.
Elles sont ensuite réparties en différents lots. Chaque lot correspondant aux animaux traités par le produit à tester à une dose déterminée est composé de lO souris. Dans ce cas, le produit à tester est dissous dans l'eau distillée et il est administré, pendant n jours (J1-Jn) variables selon le protocole choisi, par voie intrapéritonéale à raison de 0,1 ml par lO g de poids des souris traitées, les doses du produit administré étant précisées dans les tableaux ci-dessous.
Le lot "Contrôle négatif", correspondant aux animaux qui ne sont pas traités par un produit, comprend 2 √N animaux, N étant égal au nombre total de souris traitées par un produit.
Enfin, tous lés essais sont conduits parallèlement à l'étude d'un lot appelé "Contrôle positif" de 10 animaux qui est traité par une molécule active, variable selon le protocole choisi, dans les mêmes conditions que les lots traités par le produit à tester, afin de valider l'essai.
L'activité antitumorale est évaluée en considérant l'augmentation du temps de survie des animaux traités par rapport à celui des animaux du lot "Contrôle négatif" selon la formule : • Jour médian de survie des animaux traités à une T/C = dose donnée de produit x 100 • Jour médian de survie des animaux "Contrôle négatif"
Un composé est considéré comme étant actif lorsque la valeur du rapport T/C est égale ou supérieure à 125 % selon le protocole retenu. Il est toxique lorsque cette valeur est égale ou inférieure à 85 %. Le produit est également considéré comme toxique lorsque la variation pondérale, exprimée en grammes et calculée par la formule : Poids moyen du lot mesuré au jour 5 - poids moyen du même lot au jour 1, est égale ou inférieure à -4g . a) Test de la leucémie P 388 (GERAN et al., Cancer Chemother, 1972, 2, 07-57).
c) Test du mélanome B 16 (GERAN et al., Cancer Chemother, 1972, 2, 07-57).
Les essais sont effectués avec des souris hybrides BDF1 inoculées avec O,5 ml d'un homogénat de mélanome B 16 réalisé à partir de 1 g de tumeur dans 10 ml de sérum physiologique. Le composé à tester est administré pendant 9 jours (J1-J9). Le contrôle positif du test est le Cis- platine administré dans les mêmes conditions. Le nombre d'animaux survivants est évalué au jour J 60. Un composé est considéré comme étant actif lorsque le rapport T/C est supérieur ou égal à 125 %.

[1] = tested on: lignée tumorale leucémie L 1210; experiment: In vitro cytotoxicity on L 1210 leukemia cell culture; type: cell-based; conditions: Mus musculus, L1210; concentration inhibiting cell proliferation by 50 p. 100, after 48 h contact; read-out: ID 50 (the source's name)
Protocol: 1) In vitro : (PAOLETTI et al., Chem. Biol. Interaction, 1979, 25, 45-58).
L'activité cytotoxique des composés de l'invention a été évaluée par des essais in vitro. Ces essais consistent à ajouter des concentrations croissantes du composé à tester à une culture cellulaire de la lignée tumorale leucémie L 1210 en phase exponentielle de croissance. Les cellules sont incubées à 37°C dans une étuve à C02 et comptées toutes les 24 heures. Le calcul de l'ID 50 (concentration du produit exprimée en micromole 1^-1 qui inhibe la prolifération cellulaire à 50 p. 100) est effectué après 48 heures de contact. Ainsi déterminées, les ID 50 des composés de l'invention sont rassemblées dans le tableau I ci-après : […]

Cc1cnc(NCCNCCO)c2c1[nH]c1ccncc12 [Dérivé N° 2, [[[(hydroxy-2 éthyl-l)amino]-2 éthyl-1]-amino]-1 méthyl-4 5-H pyrido[3',4':4,5]pyrrolo[3,2-c]pyridine]
survival (in vivo): 100%

[NH2][Pt]([NH2])([Cl])[Cl] [Cis-platine, reference compound]
Jour médian de survie (mélanome B 16): 30 and 31,0 and 40,0 | T/C % (mélanome B 16): 126% and 133% and 141% | Survivants (mélanome B 16; at day J 60): 0

CCCN(CCC)CCCNc1ncc(C)c2c1c1cnccc1n2C [Dérivé N° 13, diméthyl-4,5[(dipropylamino-3 propyl-1)ami-no]-l 5-H pyrido[3',4':4,5]pyrrolo[3,2-c]pyridine]
IC50 [1]: 3.2 µM

CCCN(CCC)CCCNc1ncc(C)c2[nH]c3ccncc3c12 [Dérivé N° 12, [(dipropylamino-3 propyl-1)amino]-1 méthyl-4 5-H pyrido[3',4':4,5]pyrrolo[3,2-c]pyridine]
IC50 [1]: 8.5 µM

CCN(CC)CCCCNc1ncc(C)c2c1c1cnccc1n2C [Dérivé N° 10, [(diéthylamino-4 butyl-1)amino]-1 diméthyl-4,5 5-H pyrido[3',4':4,5]pyrrolo[3,2-c]pyridine]
IC50 [1]: 2 µM
